# Target: T1, Aurora B (Homo sapiens, UniProt Q96GD4)
# T1 construct: cell lysates from Jurkat cells (ATCC TIB-152) used; endogenous in cells; host or cells: Jurkat cells (ATCC TIB-152), treated with pervanadate
# Test: Kinobeads assay, Aurora B
# Type: binding
# Conditions: for IC50: lysate of pervanadate-treated Jurkat cells, read-out: Inhibition values (IC50) Aur B
# T1 sequence (Q96GD4 whole entry): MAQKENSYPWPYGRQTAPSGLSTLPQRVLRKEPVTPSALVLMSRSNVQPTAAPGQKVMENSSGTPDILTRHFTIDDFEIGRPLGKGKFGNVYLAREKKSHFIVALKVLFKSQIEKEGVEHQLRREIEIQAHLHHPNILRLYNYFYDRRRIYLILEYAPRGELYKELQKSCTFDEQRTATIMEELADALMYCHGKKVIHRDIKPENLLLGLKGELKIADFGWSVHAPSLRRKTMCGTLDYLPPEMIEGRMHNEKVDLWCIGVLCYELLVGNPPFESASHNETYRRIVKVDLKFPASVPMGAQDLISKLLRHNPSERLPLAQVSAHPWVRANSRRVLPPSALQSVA
JAK3/AurB Fold Selectivity,IC50,SMILES
3-10 Fold,< 0.1 µM,"OCCn1cc(Nc2ncc3cnn(Cc4cccc(N5CCNCC5)c4F)c3n2)cn1 [Example 83, 2-(4-((1-(2-Fluoro-3-(piperazin-1-yl)benzyl)-1H-pyrazolo[3,4-d]pyrimidin-6-yl)amino)-1H-pyrazol-1-yl)ethanol]"
10-50 Fold,0.1 to 1 µM,"Cn1cc(Nc2ncc3cnn(Cc4cccc(N5CCNCC5)c4F)c3n2)cn1 [Example 67, 1-(2-Fluoro-3-(piperazin-1-yl)benzyl)-N-(1-methyl-1H-pyrazol-4-yl)-1H-pyrazolo[3,4-d]pyrimidin-6-amine]"
10-50 Fold,0.1 to 1 µM,"O=C1CNCCN1c1cc(F)c(F)c(Cn2ncc3cnc(Nc4cnn(CCO)c4)nc32)c1 [Example 72, 1-(3,4-Difluoro-5-((6-((1-(2-hydroxyethyl)-1H-pyrazol-4-yl)amino)-1H-pyrazolo[3,4-d]pyrimidin-1-yl)methyl)phenyl)piperazin-2-one]"
>50 Fold,1 to 10 µM,"Cn1cc(Nc2ncc3cnn(Cc4cccc(N5CCOCC5O)c4)c3n2)cn1 (stereo not shown) [Example 88, 4-(3-((6-((1-Methyl-1H-pyrazol-4-yl)amino)-1H-pyrazolo[3,4-d]pyrimidin-1-yl)methyl)phenyl)morpholin-3-ol]"
10-50 Fold,0.1 to 1 µM,"Cn1cc(Nc2ncc3cnn(Cc4cc(N5CCNCC5)cc(F)c4F)c3n2)cn1 [Example 86, 1-(2,3-Difluoro-5-(piperazin-1-yl)benzyl)-N-(1-methyl-1H-pyrazol-4-yl)-1H-pyrazolo[3,4-d]pyrimidin-6-amine]"
>50 Fold,1 to 10 µM,"O=C(c1cccc(Cn2ncc3cnc(Nc4cnn(CCO)c4)nc32)c1F)N1CCOCC1 [Example 85, (2-Fluoro-3-((6-((1-(2-hydroxyethyl)-1H-pyrazol-4-yl)amino)-1H-pyrazolo[3,4-d]pyrimidin-1-yl)methyl)phenyl)(morpholino)methanone]"
10-50 Fold,0.1 to 1 µM,"Cn1cc(Nc2ncc3cnn(Cc4cc(N5CCNCC5=O)cc(F)c4F)c3n2)cn1 [Example 71, 1-(3,4-Difluoro-5-((6-((1-methyl-1H-pyrazol-4-yl)amino)-1H-pyrazolo[3,4-d]pyrimidin-1-yl)methyl)phenyl)piperazin-2-one]"
10-50 Fold,0.1 to 1 µM,"CN(C)CCCn1cc(Nc2ncc3cnn(Cc4c(F)c(F)cc(N5CCOCC5=O)c4F)c3n2)cn1 [Example 70, 4-(3-((6-((1-(3-(Dimethylamino)propyl)-1H-pyrazol-4-yl)amino)-1H-pyrazolo[3,4-d]pyrimidin-1-yl)methyl)-2,4,5-trifluorophenyl)morpholin-3-one]"

# Second part, the molecule before the results:
SMILES,JAK3/AurB Fold Selectivity,IC50
"c1cc(Cn2ncc3cnc(Nc4cnn(CC5CCCNC5)c4)nc32)cc(N2CCOCC2)c1 (stereo not shown) [Example 48, 1-(3-Morpholinobenzyl)-N-(1-(piperidin-3-ylmethyl)-1H-pyrazol-4-yl)-1H-pyrazolo[3,4-d]pyrimidin-6-amine]",>50 Fold,1 to 10 µM
"O=C1CNCCN1c1cccc(Cn2ncc3cnc(Nc4cnn(CCO)c4)nc32)c1 [Example 57, 1-(3-((6-((1-(2-Hydroxyethyl)-1H-pyrazol-4-yl)amino)-1H-pyrazolo[3,4-d]pyrimidin-1-yl)methyl)phenyl)piperazin-2-one]",10-50 Fold,0.1 to 1 µM
"CN(C)CCCn1cc(Nc2ncc3cnn(Cc4cccc(N5CCOCC5)c4F)c3n2)cn1 [Example 43, N-(1-(3-(Dimethylamino)propyl)-1H-pyrazol-4-yl)-1-(2-fluoro-3-morpholinobenzyl)-1H-pyrazolo[3,4-d]pyrimidin-6-amine]",>50 Fold,0.1 to 1 µM
"CN(C)CCCn1cc(Nc2ncc3cnn(Cc4c(F)c(F)cc(N5CCOCC5)c4F)c3n2)cn1 [Example 42, N-(1-(3-(Dimethylamino)propyl)-1H-pyrazol-4-yl)-1-(2,3,6-trifluoro-5-morpholinobenzyl)-1H-pyrazolo[3,4-d]pyrimidin-6-amine]",10-50 Fold,0.1 to 1 µM
"Cn1cc(Nc2ncc3cnn(Cc4cc(F)cc(N5CCNCC5=O)c4)c3n2)cn1 [Example 64, 1-(3-Fluoro-5-((6-((1-methyl-1H-pyrazol-4-yl)amino)-1H-pyrazolo[3,4-d]pyrimidin-1-yl)methyl)phenyl)piperazin-2-one]",10-50 Fold,0.1 to 1 µM
"Cn1cc(Nc2ncc3cnn(Cc4c(F)c(F)cc(N5CCOCC5=O)c4F)c3n2)cn1 [Example 61, 4-(2,4,5-Trifluoro-3-((6-((1-methyl-1H-pyrazol-4-yl)amino)-1H-pyrazolo[3,4-d]pyrimidin-1-yl)methyl)phenyl)morpholin-3-one]",10-50 Fold,0.1 to 1 µM
"c1cc(Cn2ncc3cnc(Nc4cnn(CC5CCNC5)c4)nc32)cc(N2CCOCC2)c1 (stereo not shown) [Example 60, 1-(3-Morpholinobenzyl)-N-(1-(pyrrolidin-3-ylmethyl)-1H-pyrazol-4-yl)-1H-pyrazolo[3,4-d]pyrimidin-6-amine]",>50 Fold,1 to 10 µM
"Cn1cc(Nc2ncc3cnn(Cc4cc(N5CCOCC5=O)cc(F)c4F)c3n2)cn1 [Example 53, 4-(3,4-Difluoro-5-((6-((1-methyl-1H-pyrazol-4-yl)amino)-1H-pyrazolo[3,4-d]pyrimidin-1-yl)methyl)phenyl)morpholin-3-one]",>50 Fold,0.1 to 1 µM
"Cn1cc(Nc2ncc3cnn(Cc4cccc(N5CCNCC5=O)c4F)c3n2)cn1 [Example 54, 1-(2-Fluoro-3-((6-((1-methyl-1H-pyrazol-4-yl)amino)-1H-pyrazolo[3,4-d]pyrimidin-1-yl)methyl)phenyl)piperazin-2-one]",>50 Fold,1 to 10 µM

# From US9040545B2, “Heterocyclyl pyrazolopyrimidine analogues as selective JAK inhibitors” (Cellzome Limited, priority 2010, dated 2015)
